Measurements: US12643858B2 (Inipharm, Inc., priority 2020, dated 2026)

These compounds were tested against T1, HSD17B13 enzyme (Homo sapiens, UniProt Q7Z5P4) (assay: Estrone detection assay (LC/MS, estradiol to estrone conversion) for HSD17B13 activity). Settings: substrate 4 μM Estradiol, 6 mM NAD+, 30 nM HSD17B13 enzyme, 2 hours at 26.5° C.
T1 construct: His; made in house; host or cells: E. coli
T1 sequence (Q7Z5P4 20-300): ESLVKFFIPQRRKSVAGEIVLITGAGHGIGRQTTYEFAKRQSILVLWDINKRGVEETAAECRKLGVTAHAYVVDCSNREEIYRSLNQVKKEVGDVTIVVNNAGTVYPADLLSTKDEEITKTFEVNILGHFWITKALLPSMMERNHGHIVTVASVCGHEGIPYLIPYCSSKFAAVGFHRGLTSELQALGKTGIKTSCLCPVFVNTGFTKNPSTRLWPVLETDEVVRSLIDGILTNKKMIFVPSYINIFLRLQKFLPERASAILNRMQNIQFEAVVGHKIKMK
Assay type: biochemical
Experimental: Example B: Estrone Detection Assay for Evaluation of HSD17ß13 Activity and Identification of Inhibitors
The liquid chromatography/mass spectrometry (LC/MS) estrone detection assay monitors the conversion of estradiol to estrone by HSD17B13. This assay was undertaken in a 96wp format (Eppendorf deep well Plate 96/500) in an 80 μl reaction volume containing: 4 μM of Estradiol (E2; Cayman; Ser. No. 10/006,315), 6 mM NAD+(Sigma; #N0623) and 30 nM HSD17B13 enzyme (in-house; E. coli expressed His-tagged, purified, soluble protein) in a reaction containing […] potassium phosphate buffer pH 7.4, with 0.5% vehicle (DMSO). Reactions were incubated for 2 hours at 26.5° C., and estradiol (E2) conversion to estrone (E1) was quantitated by LC-MS/MS based analyte detection for both E2 and E1 using LCMS grade reagents.
Reactions were terminated by the addition of two volumes of acetonitrile (MeCN; LCMS grade; CAS #75/05/8) containing deuterated (D4)-E1 used as internal standard (Clear Synth; #CS-T-54273; 500 ng/mL final concentration). Samples were applied to pre-prepared Bond Elut-C18 extraction cartridges (3 mL; Agilent; Ser. No. 12/102,028), washed and eluted in MeCN. Eluates were dried under nitrogen and re-suspended in 60% methanol (LCMS grade methanol; CAS #67/56/1) before submission for analysis. Aqueous linearity for E2 and E1 were included for quantification.
Analysis of samples was undertaken on a XBridge BEH C18 column (Waters; #186003033) using 0.1% Diethyl Amine in MeCN (mobile phase A; DEA CAS #109-89-7) and 0.1% Diethyl Amine in milli-Q water (mobile phase B) in a 3 min gradient allowing 25% B. Analytes were detected in negative mode using MRM analysis, with E2 having a RT of 1.85 min and E1 having a RT of 2 min. Activity of the enzyme, in the absence of NAD+, was used to evaluate specificity of conversion. Enzyme activity in the presence of test samples was expressed as a percentage of the uninhibited enzyme activity, and plotted versus inhibitor concentration. Non-linear regression was performed using a four-parameter logistic model and GraphPad Prism software (GraphPad Software, La Jolla, CA). All assessments were undertaken in duplicate evaluations and pooled during extraction process and subsequently injected as duplicates for LC-MS/MS analysis.

SMILES | IC50
Oc1c(Cl)ccc(Oc2ccnc(-c3ccc(N4CCOCC4)cc3)n2)c1Cl [Example 118, 2,6-dichloro-3-((2-(4-morpholinophenyl)pyrimidin-4-yl)oxy)pheno] | 500 to 1000 nM
Oc1c(F)ccc(Oc2ccnc(-c3ccc(N4CCOCC4)cc3)n2)c1F [Example 115, 2,6-difluoro-3-((2-(4-morpholinophenyl)pyrimidin-4-yl)oxy)phenol] | ≤ 100 nM
Oc1c(Cl)ccc(Oc2ccnc(-c3ccc(N4CCOCC4)cc3)n2)c1F [Example 117, 6-chloro-2-fluoro-3-((2-(4-morpholinophenyl)pyrimidin-4-yl)oxy)phenol] | 100 to 500 nM
O=S1(=O)CCN(c2ccc(-c3nccc(Oc4ccc(F)c(O)c4F)n3)cc2)CC1 [Example 116, 4-(4-(4-(2,4-difluoro-3-hydroxyphenoxy)pyrimidin-2-yl)phenyl) thiomorpholine 1,1-dioxide] | ≤ 100 nM
